We go through 28 compounds from ChEMBL document CHEMBL3351455, “Discovery of 2-(cyclopentylamino)thieno[3,2-d]pyrimidin-4(3H)-one derivatives as a new series of potent phosphodiesterase 7 inhibitors” (J Med Chem, 2014).

For series [1], the target named is High affinity 3',5'-cyclic-AMP phosphodiesterase 7A (Homo sapiens, UniProt Q13946). In words: Inhibition of human PDE7A1 expressed in insect cells assessed as inhibition of [3H]cAMP to [3H]AMP hydrolysis after 30 mins by scintillation counting.
In series [2] the target is 3',5'-cyclic-AMP phosphodiesterase 4B (Homo sapiens, UniProt Q07343). In words: Inhibition of human PDE4B1 expressed in insect cells assessed as inhibition of [3H]cAMP to [3H]AMP hydrolysis after 30 mins by scintillation counting.
Series [3] concerns Lymphocyte. In words: Inhibition of IL2 production in activated mouse lymphocytes after 3 hrs by ELISA. Type of series: functional, cell-based. A general note: An ELISA detects its analyte on a solid surface through an enzyme-linked reagent.
Series [4] concerns Liver microsome. In words: Stability in human liver microsomes. Type of series: ADME. (In general: Liver microsomes are vesicles of endoplasmic reticulum, rich in cytochrome P450 enzymes.)
The subject of series [5] is Liver microsome. In words: Stability in rat liver microsomes. Type of series: ADME.
Series [6] can be described thus: Permeability of the compound by PAMPA. Type of series: ADME.

The structures appear in SMILES notation.

Chain of 3',5'-cyclic-AMP phosphodiesterase 4B (Q07343 whole entry): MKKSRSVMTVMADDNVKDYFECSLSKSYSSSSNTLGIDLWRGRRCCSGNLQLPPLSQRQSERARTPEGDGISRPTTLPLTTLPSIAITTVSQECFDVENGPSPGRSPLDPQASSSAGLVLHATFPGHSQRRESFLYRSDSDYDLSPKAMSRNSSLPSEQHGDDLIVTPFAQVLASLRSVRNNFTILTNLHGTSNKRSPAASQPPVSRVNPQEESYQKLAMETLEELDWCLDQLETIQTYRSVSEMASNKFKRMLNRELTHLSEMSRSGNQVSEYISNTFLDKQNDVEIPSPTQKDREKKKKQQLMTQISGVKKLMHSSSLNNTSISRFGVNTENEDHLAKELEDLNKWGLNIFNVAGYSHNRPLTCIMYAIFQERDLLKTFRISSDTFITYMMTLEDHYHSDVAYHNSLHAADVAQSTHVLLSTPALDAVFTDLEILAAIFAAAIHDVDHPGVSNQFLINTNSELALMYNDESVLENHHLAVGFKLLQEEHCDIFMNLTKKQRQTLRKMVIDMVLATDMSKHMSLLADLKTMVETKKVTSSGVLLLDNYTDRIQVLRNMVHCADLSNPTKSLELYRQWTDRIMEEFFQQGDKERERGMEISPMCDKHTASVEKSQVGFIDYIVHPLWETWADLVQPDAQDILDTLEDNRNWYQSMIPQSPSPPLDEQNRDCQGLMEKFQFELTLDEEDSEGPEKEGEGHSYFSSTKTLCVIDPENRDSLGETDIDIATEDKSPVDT
Chain of High affinity 3',5'-cyclic-AMP phosphodiesterase 7A (Q13946 whole entry): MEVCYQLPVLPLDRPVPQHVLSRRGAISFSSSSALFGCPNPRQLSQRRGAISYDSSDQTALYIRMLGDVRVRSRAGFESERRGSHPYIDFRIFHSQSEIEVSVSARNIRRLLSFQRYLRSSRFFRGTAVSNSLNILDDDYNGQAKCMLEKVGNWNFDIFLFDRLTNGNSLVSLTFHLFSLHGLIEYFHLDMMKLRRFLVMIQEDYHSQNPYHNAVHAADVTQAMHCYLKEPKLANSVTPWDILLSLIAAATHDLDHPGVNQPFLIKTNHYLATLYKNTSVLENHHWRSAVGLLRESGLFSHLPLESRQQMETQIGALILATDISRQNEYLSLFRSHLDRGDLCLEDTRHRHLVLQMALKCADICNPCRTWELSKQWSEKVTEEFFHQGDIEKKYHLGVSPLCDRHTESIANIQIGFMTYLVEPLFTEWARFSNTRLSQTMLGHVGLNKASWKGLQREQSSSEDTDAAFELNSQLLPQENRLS

Regarding `C=CCNc1nc2ccsc2c(=O)n1C`, the IC50 (usually the concentration at which inhibition is half-maximal) in series [1] came to 5000 nM.

In the case of `CCn1c(NC2CCCC2)nc2c(C)csc2c1=O`, the IC50 in series [1] was 98 nM; in series [2], 3800 nM; in series [3], over 3000 nM.

Consider `CCn1c(NC2CCCC2)nc2cc(C(=O)Nc3ccc(N4CCC(O)CC4)nc3)sc2c1=O`, for which the IC50 in series [1] was 2600 nM.

As for `C=CCNc1nc2cc(-c3ccc(C(=O)NCCCN(C)C)cc3)sc2c(=O)n1C`, in series [1], the IC50 was found to be 310 nM.

As to `CCn1c(NC2CCCC2)nc2c(-c3ccccc3)csc2c1=O`, the IC50 came out at 5.6 nM in series [1], 720 nM in series [2] and 1800 nM in series [3].

As to `C=CCNc1nc2cc(-c3cccc(C(=O)NCCO)c3)sc2c(=O)n1C`, the IC50 in series [1] was 1100 nM.

On to `CCc1cc2nc(NC3CCCC3)n(CC)c(=O)c2s1`, for which the IC50 in series [1] came out at 6500 nM; in series [2], 3500 nM.

Regarding `CCn1c(NC2CCCCC2)nc2ccsc2c1=O`, the IC50 in series [1] was 740 nM.

`CCn1c(NC2CCCC2)nc2ccsc2c1=O`: the results for the IC50 in series [1], in series [2] and in series [3] were 150 nM, 4900 nM and 5400 nM, respectively.

Regarding `C#Cc1csc2c(=O)n(CC)c(NC3CCCC3)nc12`, the figures for the IC50 in series [2] and in series [3] were 3000 nM and 560 nM, respectively.

In the case of `CCn1c(NC2CCCC2)nc2c(-c3ccc(N4CCOCC4)nc3)csc2c1=O`, the IC50 was determined as 520 nM in series [2] and 77 nM in series [3]. For the same compound, the Stability result in series [4] and in series [5] was “Unstable” each time. Also, the permeability result in series [6] was “permeable”.

Turning to `CCn1c(NC2CCCC2)nc2c(-c3ccc(CN4CCOCC4)cc3)csc2c1=O`, the figures for the IC50 in series [1], in series [2] and in series [3] were 2.3 nM, 640 nM and 1000 nM, respectively. For the same compound, the Stability entry in series [4] and in series [5] was “Unstable” each time. Also, the permeability result in series [6] was “permeable”.

In the case of `C=CCNc1nc2cc(-c3ccccc3)sc2c(=O)n1C`, the IC50 in series [1] turned out to be 6800 nM.

Turning to `CCn1c(NC2CCCC2)nc2c(-c3cccnc3)csc2c1=O`, the IC50 in series [1] was 2 nM; in series [2] it was 380 nM; in series [3], 89 nM. Besides, the Stability result in series [4] and in series [5] was “Unstable” each time. Moreover, in series [6], the permeability entry was “permeable”.

As to `CCn1c(NC2CCCC2)nc2cc(C)sc2c1=O`, the IC50 in series [1] was 11000 nM.

For `C=Cc1csc2c(=O)n(CC)c(NC3CCCC3)nc12`, the values for the IC50 in series [1], in series [2] and in series [3] were 30 nM, 3700 nM and 980 nM, respectively.

For `CCn1c(NC2CCCC2)nc2c(C#N)csc2c1=O`, the results for the IC50 in series [1], in series [2] and in series [3] were 67 nM, 3200 nM and 890 nM, respectively.

For the compound `CCn1c(NC2CCCC2)nc2cc(CNc3cccnc3)sc2c1=O`, the IC50 in series [1] is over 1000 nM; in series [2], 920 nM.

`CCn1c(NC2CCCC2)nc2c(-c3ccccc3C(=O)OC)csc2c1=O`: the IC50 in series [1] came out at 380 nM; in series [2], 3800 nM; in series [3] it was 9100 nM.

In the case of `CCn1c(NC2CCCC2)nc2c(CCc3cccnc3)csc2c1=O`, the IC50 in series [1] worked out at 7.3 nM; in series [2], 1100 nM; in series [3], 1000 nM.

Consider `CCn1c(NC2CCCC2)nc2c(N3CCN(C(=O)OC(C)(C)C)CC3=O)csc2c1=O`, for which the IC50 in series [1] was determined as 12 nM; in series [2] it was 3300 nM; in series [3] it was 3000 nM.

As to `CCn1c(NC2CCCC2)nc2c(-c3ccc(C(=O)OC)cc3)csc2c1=O`, the figures for the IC50 in series [1], in series [2] and in series [3] were 4.9 nM, 1000 nM and 1300 nM, respectively.

As for `C=CCNc1nc2cc(-c3ccc(N4CCN(C(C)C)CC4)cc3)sc2c(=O)n1C`, the IC50 in series [1] came to 160 nM.

For the compound `CCc1csc2c(=O)n(CC)c(NC3CCCC3)nc12`, the IC50 was 42 nM in series [1], 5900 nM in series [2] and 2900 nM in series [3].

For `CCn1c(NC2CCCC2)nc2c(CCCN3CCOCC3)csc2c1=O`, the IC50 in series [1] was 39 nM; in series [2], 3400 nM; in series [3], 2000 nM.

As to `CCn1c(NC2CCCC2)nc2c(C#CCN3CCOCC3)csc2c1=O`, the IC50 in series [1] was determined as 19 nM; in series [2], 820 nM; in series [3], 1700 nM.

As for `CCn1c(NC2CCCC2)nc2c(C#Cc3cccnc3)csc2c1=O`, the values for the IC50 in series [1], in series [2] and in series [3] were 4.2 nM, 1400 nM and 1300 nM, respectively.

For the compound `CCn1c(NC2CCCC2)nc2c(-c3cccc(C(=O)OC)c3)csc2c1=O`, the figures for the IC50 in series [1], in series [2] and in series [3] were 5 nM, 480 nM and 290 nM, respectively.
